Patent publication US20040077080A1, “Compositions and methods for induction of proteins involved in xenobiotic metabolism” (priority 2000, published 2004)
Read-outs that look alike come from different tables or passages of the source.

Assays:
[1] = tested on: CYP3A4 mRNA (PXR)
[2] = tested on: hPXR / CYP3A4 enhancer
[3] = tested on: CYP3A4 enhancer (PXRE)
[4] = tested on: PXR / mdr1(dr4) response element; test: Transient transfection mdr1(dr4)-Luc reporter assay with PXR; conditions: Caco-2 cells transiently co-transfected with mdr1(dr4)-Luc and PXR; 48 hours
[5] = tested on: MDR1 P-glycoprotein mRNA; test: Northern blot of MDR1 P-glycoprotein expression (Example VI)
Excerpt: FIG. 31 depicts MDR1 gene expression in LS174T cells as analyzed by Northern blot. […] Total RNA from the colon adenocarcinoma cell line LS174T was isolated and fractionated on a 1% formaldehyde gel and transferred onto a nylon membrane. The RNA blot was hybridized to ^32P-labeled MDR1 cDNA probe (top panel) or 18s rRNA probe for normalization of RNA loading on the gel (bottom panel).
(§1) FIG. 32A: Lanes 1 and 2, primary human hepatocytes; lanes 3 and 4, LS174T cells. FIG. 32B: Lanes 1 and 2, HepG2 cells; lanes 3 and 4, HepG2 that overexpress PXR (Hepg-PXR cells). FIG. 32C: Lanes 1 and 2, Caco-2; lanes 3 and 4, Caco-2 cells that overexpress PXR (Caco-PXR cells).
(§2) Total RNA from the colon adenocarcinoma cell line LS174T was isolated and fractionated on a 1% formaldehyde gel and transferred onto a nylon membrane. The RNA blot was hybridized to ^32-P-labeled MDR1 cDNA probe (top panels), ^32-P-labeled CYP3A4 cDNA probe (middle panels), or 18s rRNA probe for normalization of RNA loading on the gel (bottom panels).
(§3) FIG. 37 depicts MDR1 gene regulation in response to chrysin as studied by Northern blot analysis. […] Total RNA from the hepatocytes was isolated and fractionated on a 1% formaldehyde gel and transferred onto a nylon membrane. The RNA blot was hybridized to ^32-P-labeled MDR1 cDNA probe (top panels), ^32P-labeled CYP3A4 cDNA probe (middle panels), or 18s rRNA probe for normalization of RNA loading on the gel (bottom panels).
Northern Blot analysis for MDR1 P-glycoprotein and CYP3A4 expression: Total RNA was prepared from cells (primary hepatocytes, LS174T, HepG2, or Caco-2) using Trizol reagent (Invitrogen, Carlsbad, Calif.). For Northern blots, 15 micrograms of total RNA was fractionated on a 1% formaldehyde gel and transferred onto a nylon membrane by capillary transfer. A 530-base pair fragment of MDR1 cDNA was obtained from PCR cloning using the sense primer […] The resulting fragment was ^32P-labeled by random priming (Invitrogen, Carlsbad, Calif.) for use as an MDR1 probe. […] All constructs and cDNAs were subjected to sequence analysis. Hybridization was performed with the ExpressHyb system according to the manufacturer's instructions (Clontech, Palo Alto, Calif.).

[6] = tested on: PXR / mdr1(dr4) response element; test: Hep-PXR/Pgp-Luc stable cell luciferase assay
Experimental: (§4) FIG. 35 depicts dose-response behavior to various PXR activators in stable cell lines overexpressing PXR and harboring DR4 response element. FIG. 35A: Results are shown for the stable cell line Hep-PXR/PgpLuc. FIG. 35B: Results are shown for the stable cell line Caco-PXR/PgpLuc.
(§5) Cells were exposed to the test compounds for 48 hours at the concentrations indicated.
FIG. 36 depicts the effect of environmental and botanical chemicals on luciferase activity in the stable cell line Hep-PXR/PgpLuc. Cells were inoculated into 96-well plates at a density of 2×10^4 cells per well. After overnight recovery, cells were treated with the test compounds at the concentrations indicated for 48 hours.
(§6) Establishment of stable transformants containing both PXR and reporter plasmid and development of high throughput bioassay for PXR-dependent transactivation: The stable transformants Hep-PXR/mdr1(dr4)-Luc and Caco-PXR/mdr1(dr4)-Luc cell lines were generated from the parental cell lines HepG-PXR and Caco-PXR, respectively, according to the following procedure. The parental cell lines HepG-PXR and Caco-PXR, which overexpress PXR, were stably transfected with the luciferase reporter plasmid mdr1(dr4)-Luc. The transfected cells were cultured in DMEM (HepG-PXR cells) or in IMEM (Caco-PXR cells), both media supplemented with 10% fetal bovine serum and neomycin (700 micrograms per milliliter).
(§7) For the induction assay, stable transformants were seeded in 96-wells plates at a density of 1×10^4 cells per well and allowed to recover overnight. Plates were treated with test compounds at varying concentrations, using 3 replicates per dose. After 48 hours of exposure to the test compound, cells were washed with phosphate buffered saline, lysis buffer was applied to the wells, and luciferase substrate added. Following 10 minutes for light adaptation, luminescence was monitored according to the manufacturer's instructions (Packard kit, Biomed).

[7] = tested on: CYP3A4 mRNA; conditions: human, 48 h, 25 µM
Excerpt: as §1, §2, §3
Northern Blot analysis for MDR1 P-glycoprotein and CYP3A4 expression: Total RNA was prepared from cells (primary hepatocytes, LS174T, HepG2, or Caco-2) using Trizol reagent (Invitrogen, Carlsbad, Calif.). […]

[8] = tested on: AhR (dioxin response elements); test: in vitro; conditions: human, fold induction of luciferase activity above DMSO, DRE12-6 cells, 28 hours; TCDD 10 nanomoles per liter, omeprazole 25, 2-AAF 100, DMBA 20 micromoles per liter
[9] = tested on: PXR / mdr1(dr4) response element; test: Caco-PXR/Pgp-Luc stable cell luciferase assay
Experimental: as §4, §5, §6, §7

[10] = tested on: PXR / mdr1(dr4) response element; conditions: human, 48 h

CC(=O)[C@H]1[C@H](C#N)C[C@H]2[C@@H]3CC=C4C[C@@H](O)CC[C@]4(C)[C@H]3CC[C@@]21C [PCN, pregnenolone 16 alpha-carbonitrile]
CYP3A4 induction by Northern blot (in words) [1]: not | fold increase in luciferase activity above DMSO, single concentrations (FIG. 14) [2]: less than two | fold increase in luciferase activity above DMSO, single concentrations (FIG. 15) [3]: less than one | fold increase in luciferase activity [4]: only a minor increase | MDR1 expression in LS174T cells (in words) ([5]; LS174T cells, 48 hours): only a slightly increase

O=c1cc(-c2ccccc2)oc2cc(O)cc(O)c12 [chrysin]
MDR1 P-glycoprotein expression in primary human hepatocytes (in words) ([5]; human, 48 h, 25 µM): induce the expression of both MDR1 and CYP3A4 | fold increase in luciferase activity ([6]; human, 48 h): 5 fold | CYP3A4 expression in primary hepatocytes (in words) [7]: induce the expression of both MDR1 and CYP3A4 | fold induction [8]: 4.2

COc1ccc2[nH]c([S+]([O-])Cc3ncc(C)c(OC)c3C)nc2c1 (stereo not drawn) [omeprazole]
dose dependence of luciferase induction (in words) [9]: dose-dependent luciferase induction | dose dependence of luciferase induction (in words) [6]: dose-dependent luciferase induction | fold increase in luciferase activity [10]: 3-6 fold
